Tested on: patients with cGVHD
Assay: Example 2: safety, adverse events, relative dose intensity
Assay type: in vivo
Settings: for Cough / Diarrhea / Dyspnea / Fatigue / Headache / Muscle spasms / Nausea / Peripheral edema / Upper respiratory tract infection / Vomiting: All grades; for Hyperglycemia / Hypertension / Pneumonia: Grade ≥ 3; for ALT increased / AST increased / Bilirubin conjugated increased / Blood alkaline phosphatase increased / GGT increased / Hypoalbuminemia / LFT increased / Transaminases increased: Liver-related AE
Method: All responses were assessed by the study site investigators.

SMILES: CC(C)NC(=O)COc1cccc(-c2nc(Nc3ccc4[nH]ncc4c3)c3ccccc3n2)c1 [Belumosudil, 2-{3-[4-(1H-indazol-5-ylamino)-2-quinazolinyl]phenoxy}-N-(propan-2-yl) acetamide]
- Any AE (200 mg daily (n = 66)): 65 (99) n (%)
- Deaths (200 mg daily (n = 66)): 8 (12) n (%)
- Drug-related AEs (200 mg daily (n = 66)): 49 (74) n (%)
- Drug-related SAEs (200 mg daily (n = 66)): 5 (8) n (%)
- Grade ≥ 3 AEs (200 mg daily (n = 66)): 37 (56) n (%)
- Liver-related AEs (200 mg daily (n = 66)): 12 (18) n (%)
- SAEs (200 mg daily (n = 66)): 27 (41) n (%)
- Any AE (200 mg twice daily (n = 66)): 66 (100) n (%)
- Deaths (200 mg twice daily (n = 66)): 6 (9) n (%)
- Drug-related AEs (200 mg twice daily (n = 66)): 40 (61) n (%)
- Drug-related SAEs (200 mg twice daily (n = 66)): 2 (3) n (%)
- Grade ≥ 3 AEs (200 mg twice daily (n = 66)): 34 (52) n (%)
- Liver-related AEs (200 mg twice daily (n = 66)): 19 (29) n (%)
- SAEs (200 mg twice daily (n = 66)): 23 (35) n (%)
- Cough (200 mg daily (n = 66)): 20 (30) n (%)
- Diarrhea (200 mg daily (n = 66)): 23 (35) n (%)
- Dyspnea (200 mg daily (n = 66)): 21 (32) n (%)
- Fatigue (200 mg daily (n = 66)): 30 (46) n (%)
- Headache (200 mg daily (n = 66)): 13 (20) n (%)
- Muscle spasms (200 mg daily (n = 66)): 13 (20) n (%)
- Nausea (200 mg daily (n = 66)): 23 (35) n (%)
- Peripheral edema (200 mg daily (n = 66)): 17 (26) n (%)
- Upper respiratory tract infection (200 mg daily (n = 66)): 17 (26) n (%)
- Vomiting (200 mg daily (n = 66)): 18 (27) n (%)
- Cough (200 mg twice daily (n = 66)): 17 (26) n (%)
- Diarrhea (200 mg twice daily (n = 66)): 21 (32) n (%)
- Dyspnea (200 mg twice daily (n = 66)): 12 (18) n (%)
- Fatigue (200 mg twice daily (n = 66)): 20 (30) n (%)
- Headache (200 mg twice daily (n = 66)): 18 (27) n (%)
- Muscle spasms (200 mg twice daily (n = 66)): 13 (20) n (%)
- Nausea (200 mg twice daily (n = 66)): 18 (27) n (%)
- Peripheral edema (200 mg twice daily (n = 66)): 13 (20) n (%)
- Upper respiratory tract infection (200 mg twice daily (n = 66)): 18 (27) n (%)
- Vomiting (200 mg twice daily (n = 66)): 10 (15) n (%)
- Cough (Total (N = 132)): 37 (28) n (%)
- Diarrhea (Total (N = 132)): 44 (33) n (%)
- Dyspnea (Total (N = 132)): 33 (25) n (%)
- Fatigue (Total (N = 132)): 50 (38) n (%)
- Headache (Total (N = 132)): 31 (24) n (%)
- Muscle spasms (Total (N = 132)): 26 (20) n (%)
- Nausea (Total (N = 132)): 41 (31) n (%)
- Peripheral edema (Total (N = 132)): 30 (23) n (%)
- Upper respiratory tract infection (Total (N = 132)): 35 (27) n (%)
- Vomiting (Total (N = 132)): 28 (21) n (%)
- SAE pneumonia (Example 2): 7%
- deaths from multiorgan failure and infection possibly related to belumosudil (Example 2): 2
- grade 3 or 4 hyperglycemia (Example 2): 5%
- grade 3 or 4 hypertension (Example 2): 6%
- grade 3 or 4 pneumonia (Example 2): 8%
- grade ≥3 anemia (Example 2): 3%
- grade ≥3 cytopenias (Example 2): < 4%
- grade ≥3 neutropenia (Example 2): 2%
- grade ≥3 thrombocytopenia (Example 2): 2%
- increased GGT (AE) (Example 2): 12%
- median RDI (Example 2): 99.7%
- subjects who died during the study (Example 2): Fourteen
- subjects who discontinued because of overall AEs (Example 2): 21%
- subjects who discontinued because of possible drug-related AEs (Example 2): 12%
- subjects who discontinued because of progression of cGVHD (Example 2): 16%
- subjects who discontinued because of progression of underlying malignant disease (Example 2): 4%
- subjects who received an RDI >95% (Example 2): Eighty-one
- subjects with increased liver function tests (LFTs) (Example 2): Twenty-four
- subjects with ≥1 SAE (Example 2): Thirty eight
- tolerability (Example 2): well tolerated
- cases of Epstein-Barr viremia that required treatment (Example 2, unrelated to belumosudil): 1 case
- Hyperglycemia (200 mg daily (n = 66)): 3 (5) n (%)
- Hypertension (200 mg daily (n = 66)): 4 (6) n (%)
- Pneumonia (200 mg daily (n = 66)): 6 (9) n (%)
- Hyperglycemia (200 mg twice daily (n = 66)): 3 (5) n (%)
- Hypertension (200 mg twice daily (n = 66)): 4 (6) n (%)
- Pneumonia (200 mg twice daily (n = 66)): 4 (6) n (%)
- Hyperglycemia (Total (N = 132)): 6 (5) n (%)
- Hypertension (Total (N = 132)): 8 (6) n (%)
- Pneumonia (Total (N = 132)): 10 (8) n (%)
- ALT increased (200 mg daily (n = 66)): 4 (6) n (%)
- AST increased (200 mg daily (n = 66)): 5 (8) n (%)
- Bilirubin conjugated increased (200 mg daily (n = 66)): 1 (2) n (%)
- Blood alkaline phosphatase increased (200 mg daily (n = 66)): 4 (6) n (%)
- GGT increased (200 mg daily (n = 66)): 6 (9) n (%)
- Hypoalbuminemia (200 mg daily (n = 66)): 2 (3) n (%)
- LFT increased (200 mg daily (n = 66)): 1 (2) n (%)
- Transaminases increased (200 mg daily (n = 66)): 1 (2) n (%)
- ALT increased (200 mg twice daily (n = 66)): 7 (11) n (%)
- AST increased (200 mg twice daily (n = 66)): 8 (12) n (%)
- Bilirubin conjugated increased (200 mg twice daily (n = 66)): 0 n (%)
- Blood alkaline phosphatase increased (200 mg twice daily (n = 66)): 6 (9) n (%)
- GGT increased (200 mg twice daily (n = 66)): 10 (15) n (%)
- Hypoalbuminemia (200 mg twice daily (n = 66)): 2 (3) n (%)
- LFT increased (200 mg twice daily (n = 66)): 0 n (%)
- Transaminases increased (200 mg twice daily (n = 66)): 1 (2) n (%)
- ALT increased (Total (N = 132)): 11 (8) n (%)
- AST increased (Total (N = 132)): 13 (10) n (%)
- Bilirubin conjugated increased (Total (N = 132)): 1 (1) n (%)
- Blood alkaline phosphatase increased (Total (N = 132)): 10 (8) n (%)
- GGT increased (Total (N = 132)): 16 (12) n (%)
- Hypoalbuminemia (Total (N = 132)): 4 (3) n (%)
- LFT increased (Total (N = 132)): 1 (1) n (%)
- Transaminases increased (Total (N = 132)): 2 (2) n (%)
- Any AE (Total (N = 132)): 131 (99) n (%)
- Drug-related AEs (Total (N = 132)): 89 (67) n (%)
- Drug-related SAEs (Total (N = 132)): 7 (5) n (%)
- Grade ≥ 3 AEs (Total (N = 132)): 71 (54) n (%)
- Liver-related AEs (Total (N = 132)): 31 (24) n (%)
- SAEs (Total (N = 132)): 50 (38) n (%)
- Deaths (Total (N = 132), six died during LTFU (>28 days after last dose)): 14 (11) n (%)
